Consider three compounds from patent US20020193627A1, “Novel crystalline disodium pamidronate hydrate and process for preparing it” (priority 1999, published 2002).

For data set [1] the following is noted: for Stability Evaluation (Stable hydrate): form listed as stable. Here is the method: (1) anhydrous disodium pamidronate, (2) disodium pamidronate 3˜4 hydrates prepared in the example 2(water contents 18.50%), (3) disodium pamidronate 5 hydrates (water contents 24.41%)
(1) 1.000 g 1.200 g of anhydrous disodium pamidronate was accurately weighed and 15 samples were prepared.
(2) 1.000 g -1.200 g of disodium pamidronate 3˜4 hydrates was accurately weighed and I; samples were prepared.
(3) 1.000 g-1.200 g of disodium pamidronate 5 hydrates was accurately weighed and 15 samples were prepared.
(4) The tests were carried out under the following conditions:
1) Temperature (T) and humidity (relative humidity: RH): i) 24° C., 50% RH, ii) 40° C., 0% RH, iii) 40° C., 75% RH […]
i) 1 week ii) 2 weeks, iii) 3 weeks, iv) 4 weeks. v) 5 weeks
(5) After the tests were carried out, each sample was dried under reduced pressurekbelow 5 mmHg) at 150° C. for 5 hours, weighed the lost weight and determined the water contents.
The values show water contents (%).

Data set [2] is described as follows: Soft gelatine capsule storage stability by visual observation. Format: physicochemical. The note with it: soft gelatine capsules (125 mg); 24° C., 50% RH; 6 months. Here is the method: Soft gelatine capsules(125 mg) were respectively prepared from the crystalline disodium pamidronates of example 2 and comparative example by a conventional soft capsule manufacturing method. The soft capsules were stored in chamber which is controlled a constant temperature and hymidity (24° C., 50% RH) for 6 months. The stabilities of the soft capsules were tested by visual observation for the changes of properties, colors or shapes.

Data set [3] in a line: Thermal Gravity Assay (TGA). Type of data set: physicochemical. Here is the method: In order to confirm the physical properties of 3˜4 hydrates prepared in the example 2, the lattice distances (d-values) and relative line sensitivities of X-ray diffraction patterns were measured on the conditions of step sizes 0.012 from 2 theta 5 to 2 theta 50, scan velocity 3.000 and time 2.000 by using Rigaku D/Max-IIIB X-ray Diffractometer (XRD). The test results were shown on FIG. 1a and FIG. 1b. Thermal Gravity Assay for 3˜4 hydrates (TGA data) was carried out by using TA Instruments Model 2950 TGA Thermal Analyzer (TGA). The lost weight of the 3˜4 hydrtes was measured by gradually raising the temperature of 10° C. per minute from room temperature to 500° C. The results were shown on FIG. 2.

Where two headings read alike, the source gives them in different places.

For the compound `NCCC(O)(P(=O)([O-])O)P(=O)([O-])O.[Na+].[Na+]` [comparative example, disodium 3-amino-1-hydroxypropane-1,1-diphosphonate], the “behaviour of water contents on storage” value in data set [1] (24° C. 50% RH) is “lost from 1 week”; in data set [1] (40° C. 0% RH) it was “maintained stably”; in data set [1] (40° C. 75% RH), “maintained stably”. Further, the water contents in data set [1] (24° C., 50% RH, 1 week) turned out to be 19.14%; in data set [1] (24° C., 50% RH, 2 weeks) it was 18.79%; in data set [1] (24° C., 50% RH, 3 weeks), 18.29%; in data set [1] (24° C., 50% RH, 4 weeks) it was 18.43%; in data set [1] (24° C., 50% RH, 5 weeks), 18.37%; in data set [1] (40° C., 0% RH, 1 week), 24.44%. Besides, the water contents in data set [1] (40° C., 0% RH, 2 weeks) worked out at 24.19%; in data set [1] (40° C., 0% RH, 3 weeks) it was 23.52%; in data set [1] (40° C., 0% RH, 4 weeks) it was 23.01%; in data set [1] (40° C., 0% RH, 5 weeks) it was 22.21%; in data set [1] (40° C., 75% RH, 1 week), 24.02%; in data set [1] (40° C., 75% RH, 2 weeks), 24.43%. Further, the water contents in data set [1] (40° C., 75% RH, 3 weeks) turned out to be 24.35%; in data set [1] (40° C., 75% RH, 4 weeks), 23.65%; in data set [1] (40° C., 75% RH, 5 weeks) it was 23.55%. For the same compound, the “Stability Evaluation (Stable hydrate)” value in data set [1] (40° C., 0% RH, listed as 5 hydrate) stood at 5 hydrate; in data set [1] (40° C., 75% RH, listed as 5 hydrate) it was 5 hydrate. The “changes of properties, colors or shapes of soft capsules by visual observation” value in data set [2] is “changed in shapes (partly collapse by releasing water), colors and dewy phenomena on inner parts of the capsules”.

For the compound `NCCC(O)(P(=O)([O-])O)P(=O)([O-])O.[Na+].[Na+]` [Example 2, crystalline disodium pamidronate 3˜4 hydrates], the “temperature from which water loss begins (TGA)” value in data set [3] (10° C. per minute from room temperature to 500° C.) was found to be 50 °C. The “weight loss (TGA)” value in data set [3] (till 221.11° C., 14.26%+3.845%, error of measurement ±3%) is 18.105%. Moreover, the water contents in data set [1] (24° C., 50% RH, 1 week) amounted to 18.19%; in data set [1] (24° C., 50% RH, 2 weeks) it was 18.03%; in data set [1] (24° C., 50% RH, 3 weeks), 18.04%; in data set [1] (24° C., 50% RH, 4 weeks), 18.31%; in data set [1] (24° C., 50% RH, 5 weeks), 18.28%; in data set [1] (40° C., 0% RH, 1 week), 17.12%. The water contents in data set [1] (40° C., 0% RH, 2 weeks) stood at 17.20%; in data set [1] (40° C., 0% RH, 3 weeks) it was 17.37%; in data set [1] (40° C., 0% RH, 4 weeks), 17.10%; in data set [1] (40° C., 0% RH, 5 weeks) it was 17.22%; in data set [1] (40° C., 75% RH, 1 week) it was 17.20%; in data set [1] (40° C., 75% RH, 2 weeks), 17.66%. The water contents was found to be 17.45% in data set [1] (40° C., 75% RH, 3 weeks); 17.15% in data set [1] (40° C., 75% RH, 4 weeks); 17.26% in data set [1] (40° C., 75% RH, 5 weeks). In addition, the “Stability Evaluation (Stable hydrate)” value is 3-4 hydrate in data set [1] (24° C., 50% RH); 3-4 hydrate in data set [1] (40° C., 0% RH); 3-4 hydrate in data set [1] (40° C., 75% RH). Moreover, the “behaviour of water contents on storage” value in data set [1] (40° C. 0% RH) and in data set [1] (40° C. 75% RH) was “maintained stably” throughout. Moreover, the “overall stability among disodium pamidronate hydrates” value in data set [1] (all storage conditions) is recorded as “structurally the most stable”. In addition, the “changes of properties, colors or shapes of soft capsules by visual observation” value in data set [2] is given as “No changes are observed”.

For anhydrous disodium pamidronate, the “behaviour of water contents on storage” value in data set [1] (24° C. 50% RH) is on record as “absorbed water”; in data set [1] (24° C., 0% RH), “maintained stably”. The results for the “time after which converted to 3˜4 hydrates” value in data set [1] (24° C. 50% RH) and in data set [1] (40° C. 75% RH) were 4 weeks and 3 weeks, respectively. Also, the water contents came to 1.45% in data set [1] (24° C., 50% RH, 1 week); 8.42% in data set [1] (24° C., 50% RH, 2 weeks); 13.34% in data set [1] (24° C., 50% RH, 3 weeks); 17.19% in data set [1] (24° C., 50% RH, 4 weeks); 17.84% in data set [1] (24° C., 50% RH, 5 weeks); 0.02% in data set [1] (40° C., 0% RH, 1 week). Further, the water contents in data set [1] (40° C., 0% RH, 2 weeks) is reported as 0.06%; in data set [1] (40° C., 0% RH, 3 weeks), 0.05%; in data set [1] (40° C., 0% RH, 4 weeks), 0.08%; in data set [1] (40° C., 0% RH, 5 weeks), 0.10%; in data set [1] (40° C., 75% RH, 1 week), 7.14%; in data set [1] (40° C., 75% RH, 2 weeks), 14.39%. Further, the water contents came out at 18.20% in data set [1] (40° C., 75% RH, 3 weeks); 18.24% in data set [1] (40° C., 75% RH, 4 weeks); 18.22% in data set [1] (40° C., 75% RH, 5 weeks). The “Stability Evaluation (Stable hydrate)” value in data set [1] (40° C., 0% RH) is given as “anhydrous form”.
